Data reported in ChEMBL document CHEMBL5120796, “A novel photocaged B-RafV600E inhibitor toward precise melanoma treatment” (Bioorg Med Chem Lett, 2022).
Calls of active or inactive are those of the source. No cut-off for these calls is given here.

Legend:
[1] = system: SK-MEL-1; assay: Antiproliferative activity against human SK-MEL-1 cells harboring […] B-RAF assessed as cell growth inhibition irradiated with 365 nm UV light for 5 mins measured after 72 hrs by CCK-8 analysis; format: functional, cell-based; conditions: SK-MEL-1, light or radiation study
[2] = system: A-375; assay: Antiproliferative activity against human A-375 cells harboring B-RAF V600E mutant assessed as cell growth inhibition measured after 72 hrs by CCK-8 analysis; format: functional, cell-based; conditions: A-375, 72 h
[3] = system: A-375; assay: Antiproliferative activity against human A-375 cells harboring B-RAF V600E mutant assessed as cell growth inhibition irradiated with 365 nm UV light for 10 mins measured after 72 hrs by CCK-8 analysis; format: functional, cell-based; conditions: A-375, light or radiation study
[4] = system: A-375; assay: Inhibition of ERK phosphorylation in human A-375 cells at 0.1 to 10 uM incubated for 2 hrs irradiated with 365 nm UV light for 5 mins by Western blot analysis; format: cell-based; conditions: dose 0.1-10 µM
[5] = system: A-375; assay: Antiproliferative activity against human A-375 cells harboring B-RAF V600E mutant assessed as cell growth inhibition irradiated with 365 nm UV light for 5 mins measured after 72 hrs by CCK-8 analysis; format: functional, cell-based; conditions: A-375, light or radiation study
[6] = system: A-375; assay: Antiproliferative activity against human A-375 cells harboring B-RAF V600E mutant assessed as cell growth inhibition irradiated with 365 nm UV light for 0.5 mins measured after 72 hrs by CCK-8 analysis; format: functional, cell-based; conditions: A-375, light or radiation study
[7] = system: A-375; assay: Antiproliferative activity against human A-375 cells harboring B-RAF V600E mutant assessed as cell growth inhibition irradiated with sun light for 5 mins measured after 72 hrs by CCK-8 analysis; format: functional, cell-based; conditions: A-375, light or radiation study
[8] = system: SK-MEL-2; assay: Antiproliferative activity against human SK-MEL-2 cells harboring wild type B-RAF assessed as cell growth inhibition measured after 72 hrs by CCK-8 analysis; format: functional, cell-based; conditions: SK-MEL-2, 72 h
[9] = system: A-375; assay: Antiproliferative activity against human A-375 cells harboring B-RAF V600E mutant assessed as cell growth inhibition irradiated with sun light for 10 mins measured after 72 hrs by CCK-8 analysis; format: functional, cell-based; conditions: A-375, light or radiation study
[10] = Photorelease ability in PBS buffer assessed as N-(2,4-difluoro-3-((3-(4-fluorophenyl)-1H-pyrazolo[3,4-b]pyridin-5-yl)ethynyl)phenyl)pyridine-3-sulfonamide formation by measuring half life at 5.85 ug/ml irradiated with 365 nm UV light by UPLC analysis; format: functional; conditions: dose 5.85 µg/ml
[11] = system: A-375; assay: Antiproliferative activity against human A-375 cells harboring B-RAF V600E mutant assessed as cell growth inhibition irradiated with 365 nm UV light for 2.5 mins measured after 72 hrs by CCK-8 analysis; format: functional, cell-based; conditions: A-375, light or radiation study
[12] = system: A-375; assay: Antiproliferative activity against human A-375 cells harboring B-RAF V600E mutant assessed as cell growth inhibition irradiated with sun light for 0.5 mins measured after 72 hrs by CCK-8 analysis; format: functional, cell-based; conditions: A-375, light or radiation study
[13] = system: A-375; assay: Antiproliferative activity against human A-375 cells harboring B-RAF V600E mutant assessed as cell growth inhibition irradiated with sun light for 2.5 mins measured after 72 hrs by CCK-8 analysis; format: functional, cell-based; conditions: A-375, light or radiation study
[14] = Retention time of compound in PBS buffer by UPLC analysis; format: physicochemical; conditions: dose 5.85 µg/ml
[15] = Photorelease ability in PBS buffer assessed as N-(2,4-difluoro-3-((3-(4-fluorophenyl)-1H-pyrazolo[3,4-b]pyridin-5-yl)ethynyl)phenyl)pyridine-3-sulfonamide formation by measuring half life at 5.85 ug/ml irradiated with sun light by UPLC analysis; format: functional; conditions: dose 5.85 µg/ml
[16] = system: SK-MEL-2; assay: Antiproliferative activity against human SK-MEL-2 cells harboring wild type B-RAF assessed as cell growth inhibition irradiated with 365 nm UV light for 5 mins measured after 72 hrs by CCK-8 analysis; format: functional, cell-based; conditions: SK-MEL-2, light or radiation study
[17] = biological target: Serine/threonine-protein kinase B-raf (Homo sapiens, UniProt P15056, V600E); assay: Inhibition of GST-tagged recombinant human B-RAF V600E mutant expressed in baculovirus expression system incubated for 1 hr in presence of ATP by FRET-based Z'-Lyte analysis
[18] = system: SK-MEL-1; assay: Antiproliferative activity against human SK-MEL-1 cells harboring […] B-RAF assessed as cell growth inhibition measured after 72 hrs by CCK-8 analysis; format: functional, cell-based; conditions: SK-MEL-1, 72 h
[19] = system: A-375; assay: Inhibition of ERK phosphorylation in human A-375 cells at 0.1 to 10 uM incubated for 2 hrs by Western blot analysis; format: cell-based; conditions: dose 0.1-10 µM

Serine/threonine-protein kinase B-raf, sequence (P15056 2-766 V600E limits assumed): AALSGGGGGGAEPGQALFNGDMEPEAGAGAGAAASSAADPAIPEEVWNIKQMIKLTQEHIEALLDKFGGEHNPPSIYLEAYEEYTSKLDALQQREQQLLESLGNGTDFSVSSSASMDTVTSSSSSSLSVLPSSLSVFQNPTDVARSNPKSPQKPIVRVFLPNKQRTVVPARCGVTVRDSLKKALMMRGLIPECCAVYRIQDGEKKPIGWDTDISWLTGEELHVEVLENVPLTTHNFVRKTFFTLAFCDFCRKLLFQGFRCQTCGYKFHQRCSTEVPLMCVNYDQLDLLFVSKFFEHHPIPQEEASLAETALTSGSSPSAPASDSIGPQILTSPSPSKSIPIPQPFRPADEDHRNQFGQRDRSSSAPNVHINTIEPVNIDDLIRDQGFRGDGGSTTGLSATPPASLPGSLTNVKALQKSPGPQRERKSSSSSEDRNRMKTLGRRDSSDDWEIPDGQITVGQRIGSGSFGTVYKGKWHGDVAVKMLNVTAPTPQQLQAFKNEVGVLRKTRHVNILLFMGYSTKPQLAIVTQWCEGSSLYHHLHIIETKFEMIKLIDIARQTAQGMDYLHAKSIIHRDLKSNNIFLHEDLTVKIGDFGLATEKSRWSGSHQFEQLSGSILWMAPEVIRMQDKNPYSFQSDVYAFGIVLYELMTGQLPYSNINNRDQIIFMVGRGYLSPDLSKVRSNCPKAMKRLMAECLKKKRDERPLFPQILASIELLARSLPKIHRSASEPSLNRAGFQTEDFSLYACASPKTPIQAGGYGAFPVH

COc1cc(CN(c2ccc(F)c(C#Cc3cnc4[nH]nc(-c5ccc(F)cc5)c4c3)c2F)S(=O)(=O)c2cccnc2)c([N+](=O)[O-])cc1OC
IC50 [1]: 840 nM | IC50 [2]: > 10000 nM | IC50 [3]: 240 nM | inhibition [4]: Active | IC50 [5]: 210 nM | IC50 [6]: 700 nM | IC50 [7]: 280 nM | IC50 [8]: > 10000 nM | IC50 [9]: 290 nM | T1/2 [10]: 2 min | IC50 [11]: 370 nM | IC50 [12]: 850 nM | IC50 [13]: 340 nM | Retention_time [14]: 5.9 min | T1/2 [15]: 2.8 min | IC50 [16]: > 10000 nM | IC50 [17]: > 10000 nM | IC50 [18]: > 10000 nM

O=S(=O)(Nc1ccc(F)c(C#Cc2cnc3[nH]nc(-c4ccc(F)cc4)c3c2)c1F)c1cccnc1
inhibition [19]: Active | IC50 [1]: 560 nM | IC50 [2]: 210 nM | IC50 [3]: 220 nM | inhibition [4]: Active | IC50 [5]: 180 nM | IC50 [6]: 190 nM | IC50 [7]: 170 nM | IC50 [8]: > 10000 nM | IC50 [9]: 190 nM | IC50 [11]: 170 nM | IC50 [12]: 160 nM | IC50 [13]: 160 nM | Retention_time [14]: 1.7 min | IC50 [16]: > 10000 nM | IC50 [17]: 21 nM | IC50 [18]: 760 nM
